Measurements as given in patent EP4471048A1, “PEPTIDE INHIBITORS OF INTERLEUKIN-23 RECEPTOR” (Zealand Pharma A/S, priority 2023, dated 2024).
Where two headings read alike, the source gives them in different places. *1 amine or outer side, *2 acyl side, *3 side chain or, on linkers, in order; H or OH if unused. Where a SMILES comes first, the peptide text is derived from it. Bridges are numbered along the chain shown (N, C = ends). [ ]: non-standard residue; d: D form. The star is where a group is joined. 2Nal = N[C@@H](Cc1ccc2ccccc2c1)C(=O)O; AEF = NCCOc1ccc(C[C@H](N)C(=O)O)cc1; X1 = O=C(Cc1ccc(CN[*:1])cc1)[*:2]; 3Pal = N[C@@H](Cc1cccnc1)C(=O)O; αMeL = CC(C)C[C@](C)(N)C(=O)O; CH2COCH2 = O=C(C[*:1])C[*:2]; 3Amb = NCc1cccc(C(=O)O)c1; Pyrrolidide = C1CCN(*)C1; Dab = NCC[C@H](N)C(=O)O

Legend:
[1] = target: IL-23 mediated signalling (Homo sapiens, UniProt Q5VWK5); test: Functional inhibition of IL-23 mediated STAT3 signalling (phospho-STAT3 MSD) in DB cells; assay type: cell-based; conditions: for Emax: read-out: hIL-23 (pSTAT3) antagonist % inhibition
Description: Upon binding of IL-23, the IL-23R forms a heterodimer signalling complex together with IL-12R β1, which through the JAK2/STAT3 pathway promotes phosphorylation of STAT3 to form phospho-STAT3.
For compounds tested in this assay, the response was normalized relative to control values to calculate the IC50 and maximal inhibitory response from a concentration response curve of the compound in presence of a fixed concentration of human IL-23.
The assay procedure was as follows. […] Following preincubation of the DB cells with inhibitor for 15 min in a cell incubator (37 °C, 5% CO2), 20 µL of the prepared 3X the EC80 of hIL-23 solution was added to each well and incubated for 90 min in a cell incubator (37 °C, 5% CO2). For some wells buffer only or IL-23 only corresponding to the EC80 was added to obtain readouts needed for normalization. To terminate the assay, the plate was spun at 1000 G for 5 min to pellet cells, the supernatant removed using an 8-channel manual pipette, and then added 50 µL/well Complete Lysis Buffer from the MSD STAT3 kit (Cat# K150SVD, Mesoscale) to the cell pellet. To completely lyse cells to release phospho-STAT3 for detection, the plate was shaken for 10 min at room temperature (500 rpm) sealed with aluminium foil and placed at -80 °C for a minimum of 15 min. Detection of the phospho-STAT3 level in the cell lysate from the individual wells was determined using the MSD STAT3 kit (Cat# K150SVD, Mesoscale) and read on a Meso QuickPlex SQ 120 plate reader (Mesoscale).
For data analysis raw data counts from the Meso QuickPlex SQ 120 plate reader were normalized relative to the response by the EC80 of h1L-23 alone (no compound added) and the buffer level. Compound potency (IC50) and maximal inhibitory response (% inhibition) were estimated by computer-aided curve fitting using a 4-parameter logistic (4PL) nonlinear model. […] Table 3-2: hIL-23 (pSTAT3) antagonist IC50 and % inhibition

[2] = Peptide stability in simulated intestinal fluid (SIF); assay type: in vitro ADME; conditions: pig, 37 °C, porcine pancreatin; for remaining at 1 h, 10 µM: pH 6.8, 1 h; for remaining at 4 h, 10 µM: pH 6.8, 4 h, read-out: SIF (% remaining 4 h)
Procedure, shortened: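 Peptides were incubated at 37 °C with gentle shaking in pH 6.8 potassium phosphate SIF containing porcine pancreatin (10 g/L). Supernatants were analysed by LC-HRMS. Percent remaining at each timepoint, including 4 h, was calculated relative to time zero from absolute peak areas.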

human IL-23R = target: T1, human IL-23R (Homo sapiens, UniProt Q5VWK5); test: biochemical
T1 sequence (Q5VWK5 22-629): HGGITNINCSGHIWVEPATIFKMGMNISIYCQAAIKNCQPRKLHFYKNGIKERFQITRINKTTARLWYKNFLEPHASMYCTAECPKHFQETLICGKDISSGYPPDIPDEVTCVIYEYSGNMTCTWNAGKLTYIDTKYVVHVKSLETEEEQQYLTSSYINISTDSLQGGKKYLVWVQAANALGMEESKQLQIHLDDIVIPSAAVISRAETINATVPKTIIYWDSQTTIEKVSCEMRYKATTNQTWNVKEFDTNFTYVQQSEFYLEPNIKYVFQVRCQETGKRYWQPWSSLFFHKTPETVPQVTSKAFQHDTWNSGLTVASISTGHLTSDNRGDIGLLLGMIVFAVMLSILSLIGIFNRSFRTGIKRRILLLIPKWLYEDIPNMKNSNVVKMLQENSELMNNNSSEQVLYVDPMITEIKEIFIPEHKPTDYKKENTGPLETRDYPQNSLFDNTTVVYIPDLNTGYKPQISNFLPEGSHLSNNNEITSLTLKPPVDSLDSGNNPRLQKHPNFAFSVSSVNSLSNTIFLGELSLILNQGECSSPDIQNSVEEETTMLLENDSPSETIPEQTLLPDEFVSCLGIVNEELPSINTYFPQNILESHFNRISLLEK
Procedure, shortened: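 BRET displacement of a TAMRA-labelled reference compound from N-terminal Nanoluc-IL-23R fusion protein in membranes from stably transfected HEK293 cells. Incubation 2 h at room temperature, then Nanoluc substrate was added and the TAMRA/Nanoluc ratio read. IC50 and maximal displacement came from 4-parameter logistic fits.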

[3] = Table 3-2, DB cells, hIL-23 at EC80, read-out: hIL-23 (pSTAT3) antagonist IC50
[4] = Table 3-2, maximal inhibitory response, DB cells, hIL-23 at EC80

IC50 [1, 3]	Emax [1, 4]	remaining at 1 h, 10 µM [2]	remaining at 4 h, 10 µM [2]	% displacement (hIL-23R NIuc) (human IL-23R)	IC50 (human IL-23R)	Ki (human IL-23R)	hIL-23 (pSTAT3) antagonist % inhibition [1, 4]	% displacement (hIL-23R NIuc) (human IL-23R; Table 3-1, maximal displacement of TAMRA-labelled peptide)	Structure (SMILES)	IC50 [1]
0.13 nM	100%	5%	0%	100%	0.025 nM	0.0205 nM			CC(C)C[C@]1(C)NC(=O)[C@H](Cc2ccc3ccccc3c2)NC(=O)[C@H](Cc2ccc(OCCN)cc2)NC(=O)[C@@H]2CSCC(=O)CSC[C@H](NC(=O)[C@H](CO)NC(=O)c3cccc(c3)CNC(=O)CC[C@@H](C(=O)N[C@@H](CCCNC(=N)N)C(=O)N[C@@H](Cc3cccnc3)C(N)=O)NC1=O)C(=O)N[C@@H](Cc1c[nH]c3ccccc13)C(=O)N[C@@H](CCC(N)=O)C(=O)N2 [Ref 78, [(3-Aminomethyl)benzoyl](1c)*SC(2a)WQC(2a)[Y(2-aminoethoxy)][2-Nal][2-Me-Leu]E(1c)R[3-(3-Pyridyl)-Ala]-[NH2], reference compound] ([3Amb]SCWQC[AEF][2Nal][αMeL]ER[3Pal]-NH2; linker 3-6 via CH2COCH2; lactam N-10)	
11 nM	97%	84%	86%	98%	0.18 nM	0.15 nM			CC(C)C[C@]1(C)NC(=O)[C@H](Cc2ccc3ccccc3c2)NC(=O)[C@H](Cc2ccc(OCCN)cc2)NC(=O)[C@@H]2CSCC(=O)CSC[C@H](NC(=O)[C@H](CO)NC(=O)Cc3ccc(cc3)CNC(=O)CC[C@@H](C(=O)N[C@H](CCCNC(=N)N)C(N)=O)NC1=O)C(=O)N[C@@H](Cc1c[nH]c3ccccc13)C(=O)N[C@@H](CCC(N)=O)C(=O)N2 [Ref 80, [4-Aminomethyl-phenylacetyl](1c)*SC(2a)WQC(2a)[Y(2-aminoethoxy)][2-Nal][2-Me-Leu]E(1c)[{d}R]-[NH2], reference compound] ([X1]SCWQC[AEF][2Nal][αMeL]E[dR]-NH2; linker 3-6 via CH2COCH2; lactam N-10)	
							98%	105%	CC(C)C[C@]1(C)NC(=O)[C@H](Cc2ccc3ccccc3c2)NC(=O)[C@H](Cc2ccc(OCCN)cc2)NC(=O)[C@@H]2CCNC(=O)CC[C@H](NC(=O)[C@H](CO)NC(=O)Cc3ccc(cc3)CNC(=O)CC[C@@H](C(=O)N[C@@H](CCN)C(N)=O)NC1=O)C(=O)N[C@@H](Cc1c[nH]c3ccccc13)C(=O)N[C@@H](CCC(=O)N1CCCC1)C(=O)N2 [Ref 146, [4-Aminomethyl-phenylacetyl](1c)*SE(2c)W[Q(pyrrolidin)][Dab](2c)[Y(2-aminoethoxy)][2-Nal][2-Me-Leu]E(1c)[Dab]-[NH2], reference compound] ([X1]SEWE(Pyrrolidide)[Dab][AEF][2Nal][αMeL]E[Dab]-NH2; lactam 3-6, N-10)	

Structure (SMILES)	IC50 [1, 3]	Emax [1, 4]	remaining at 1 h, 10 µM [2]	remaining at 4 h, 10 µM [2]	% displacement (hIL-23R NIuc) (human IL-23R)	IC50 (human IL-23R)	Ki (human IL-23R)	hIL-23 (pSTAT3) antagonist % inhibition [1, 4]	% displacement (hIL-23R NIuc) (human IL-23R; Table 3-1, maximal displacement of TAMRA-labelled peptide)	IC50 [1]
CC(=O)N[C@H]1CCCCNC(=O)CC[C@@H](C(=O)N[C@@H](CCN)C(=O)N[C@@H](Cc2cccnc2)C(N)=O)NC(=O)[C@](C)(CC(C)C)NC(=O)[C@H](Cc2ccc3ccccc3c2)NC(=O)[C@H](Cc2ccc(OCCN)cc2)NC(=O)[C@@H]2CSCC(=O)CSC[C@H](NC(=O)[C@H]([C@@H](C)O)NC1=O)C(=O)N[C@@H](Cc1c[nH]c3ccccc13)C(=O)N[C@@H](CCC(N)=O)C(=O)N2 [Ref 155, [Ac]-K(1c)TC(2a)WQC(2a)[Y(2-aminoethoxy)][2-Nal][2-Me-Leu]E(1c)[Dab][3-(3-Pyridyl)-Ala]-[NH2], reference compound] (Ac-KTCWQC[AEF][2Nal][αMeL]E[Dab][3Pal]-NH2; lactam 1-10; linker 3-6 via CH2COCH2)		100%			97%	0.0099 nM	0.00805 nM			0.031 nM
